The results in this text go back to patent US7115622B2, “Amido ether substituted imidazoquinolines” (3M Innovative Properties Company, priority 2000, dated 2006).

The melting point is the temperature, or range, at which the solid turns liquid.

One data set has as its system interferon (α). Description: Cytokine Induction in Human Cells: interferon induction in PBMC. On the set-up: key to Lowest Effective Concentration (μM) Interferon: *: no induction was seen at any of the tested concentrations; generally the highest concentration tested was 10 or 30 μM. The conditions noted are these: 18 to 24 hours incubation, tested 30–0.014 μM, ELISA; for minimal effective concentration: read-out: Lowest Effective Concentration (μM) Interferon. It is filed as cell-based. The text has this:
(§1) An in vitro human blood cell system is used to assess cytokine induction. Activity is based on the measurement of interferon and tumor necrosis factor (α) (IFN and TNF, respectively) secreted into culture media as described by Testerman et. al. In “Cytokine Induction by the Immunomodulators Imiquimod and S-27609”, Journal of Leukocyte Biology, 58, 365–372 (September, 1995).
(§2) Whole blood from healthy human donors is collected by venipuncture into EDTA vacutainer tubes. Peripheral blood mononuclear cells (PBMC) are separated from whole blood by density gradient centrifugation using Histopaque®-1077. Blood is diluted 1:1 with Dulbecco's Phosphate Buffered Saline (DPBS) or Hank's Balanced Salts Solution (HBSS). The PBMC layer is collected and washed twice with DPBS or HBSS and resuspended at 4×10^6 cells/mL in RPMI complete. The PBMC suspension is added to 48 well flat bottom sterile tissue culture plates (Costar, Cambridge, Mass. or Becton Dickinson Labware, Lincoln Park, N.J.) containing an equal volume of RPMI complete media containing test compound.
(§3) The compounds are solubilized in dimethyl sulfoxide (DMSO). The DMSO concentration should not exceed a final concentration of 1% for addition to the culture wells. The compounds are generally tested at concentrations ranging from 30–0.014 μM.
(§4) The solution of test compound is added at 60 μM to the first well containing RPMI complete and serial 3 fold dilutions are made in the wells. The PBMC suspension is then added to the wells in an equal volume, bringing the test compound concentrations to the desired range (30–0.014 μM). The final concentration of PBMC suspension is 2×10^6 cells/mL. The plates are covered with sterile plastic lids, mixed gently and then incubated for 18 to 24 hours at 37° C. in a 5% carbon dioxide atmosphere.
(§5) Following incubation the plates are centrifuged for 10 minutes at 1000 rpm (˜200×g) at 4° C. The cell-free culture supernatant is removed with a sterile polypropylene pipet and transferred to sterile polypropylene tubes. Samples are maintained at −30 to −70° C. until analysis. The samples are analyzed for interferon (α) by ELISA and for tumor necrosis factor (α) by ELISA or IGEN Assay
Interferon (α) and Tumor Necrosis Factor (α) Analysis by ELISA Interferon (α) concentration is determined by ELISA using a Human Multi-Species kit from PBL Biomedical Laboratories, New Brunswick, N.J. Results are expressed in pg/mL.
(§6) The table below lists the lowest concentration found to induce interferon and the lowest concentration found to induce tumor necrosis factor for each compound.
A general note: ELISA stands for enzyme-linked immunosorbent assay.

In data set [1] the test system is tumor necrosis factor (α). Description: Cytokine Induction in Human Cells: tumor necrosis factor induction in PBMC. It is filed as cell-based. On the set-up: key to Lowest Effective Concentration (μM) Tumor Necrosis Factor: *: no induction was seen at any of the tested concentrations; generally the highest concentration tested was 10 or 30 μM. The conditions noted are these: 18 to 24 hours incubation, tested 30–0.014 μM, ELISA or IGEN assay; for minimal effective concentration: read-out: Lowest Effective Concentration (μM) Tumor Necrosis Factor.
Description: as §1, §2, §3, §4, §5
Tumor necrosis factor (α) (TNF) concentration is determined using ELISA kits available from Biosource International, Camarillo, Calif. Alternately, the TNF concentration can be determined by Origen® M-Series Immunoassay and read on an IGEN M-8 analyzer from IGEN International, Gaithersburg, Md. The immunoassay uses a human TNF capture and detection antibody pair from Biosource International, Camarillo, Calif. Results are expressed in pg/mL.
as §6

The compound `COCCc1nc2c(N)nc3ccccc3c2n1CCOCCNC(=O)c1ccccc1` [Example 4, N-(2-{2-[4-amino-2-(2-methoxyethyl)-1H-imidazo[4,5-c]quinolin-1-yl]ethoxy}ethyl)benzamide] gave a melting point of 184 to 187 °C.
For `COCCc1nc2c(N)nc3c(c2n1CCOCCNC(=O)c1ccccc1)CCCC3` [Example 6, N-(2-{2-[4-amino-2-(2-methoxyethyl)-6,7,8,9-tetrahydro-1H-imidazo[4,5-c]quinolin-1-yl]ethoxy}ethyl)benzamide], the melting point lay within 141 to 143 °C.
As for `COCCc1nc2c(N)nc3ccccc3c2n1CCOCCN(C)C(=O)c1ccccc1` [Example 8, N-(2-{2-[4-amino-2-(2-methoxyethyl)-1H-imidazo[4,5-c]quinolin-1-yl]ethoxy}ethyl)-N-methylbenzamide], the melting point was in the range of 93.5 to 97 °C.
Regarding `CCCCc1nc2c(N)nc3ccccc3c2n1CCOCCNC(=O)c1ccc(C(F)(F)F)cc1` [Example 33], in the data set with interferon (α), the “Lowest Effective Concentration (μM) Interferon” value is recorded as “*”. Besides, the minimal effective concentration in data set [1] was 10 µM.
The corresponding values for `CCCCc1nc2c(N)nc3ccccc3c2n1CCOCCNC(=O)c1ccc(OC(F)(F)F)cc1` [Example 34] are “*” and 10 µM.
Turning to `CCC(COCCC1CCN(C(=O)C2CC2)CC1)n1cnc2c(N)nc3ccccc3c21` (centres unmarked) [Example 35], the values for the minimal effective concentration (in the data set with interferon (α); in data set [1]) were 0.1 µM and 1 µM, respectively.
As for `CCCCC(=O)N1CCC(CCOCC(CC)n2cnc3c(N)nc4ccccc4c32)CC1` (centres unmarked) [Example 36], the minimal effective concentration (in the data set on interferon (α); in data set [1]) was 1 µM throughout.
As to `CCC(COCCC1CCN(C(=O)C2CCCC2)CC1)n1cnc2c(N)nc3ccccc3c21` (centres unmarked) [Example 37], the minimal effective concentration (in the data set on interferon (α); in data set [1]) was 1 µM each time.
For the compound `CCC(COCCC1CCN(C(=O)c2ccccc2)CC1)n1cnc2c(N)nc3ccccc3c21` (centres unmarked) [Example 38], the minimal effective concentration with interferon (α) is 1 µM; in data set [1], 10 µM.
The corresponding values for `CCC(COCCC1CCN(C(=O)Cc2ccccc2)CC1)n1cnc2c(N)nc3ccccc3c21` (centres unmarked) [Example 39] are 1 µM and 10 µM.
Take `CCC(COCCC1CCN(C(=O)c2ccc(F)cc2)CC1)n1cnc2c(N)nc3ccccc3c21` (centres unmarked) [Example 40]: the minimal effective concentration (in the data set on interferon (α); in data set [1]) was 1 µM in each case.
In the case of `CCC(COCCC1CCN(C(=O)Cc2cccs2)CC1)n1cnc2c(N)nc3ccccc3c21` (centres unmarked) [Example 41], the minimal effective concentration is 0.1 µM in the data set with interferon (α) and 1 µM in data set [1].
Take `CCC(COCCC1CCN(C(=O)c2cccc(C#N)c2)CC1)n1cnc2c(N)nc3ccccc3c21` (centres unmarked) [Example 42]: the minimal effective concentration (with interferon (α); in data set [1]) was 1 µM throughout.
As to `CCC(COCCC1CCN(C(=O)CCc2ccccc2)CC1)n1cnc2c(N)nc3ccccc3c21` (centres unmarked) [Example 43], the minimal effective concentration worked out at 1 µM in the data set with interferon (α) and 10 µM in data set [1].
Take `CCC(COCCC1CCN(C(=O)c2ccc(OC)cc2)CC1)n1cnc2c(N)nc3ccccc3c21` (centres unmarked) [Example 44]: the minimal effective concentration (in the data set on interferon (α); in data set [1]) was 1 µM in each case.
For `CCC(COCCC1CCN(C(=O)c2ccc(Cl)nc2)CC1)n1cnc2c(N)nc3ccccc3c21` (centres unmarked) [Example 45], the minimal effective concentration with interferon (α) is 0.1 µM; in data set [1], 1 µM.
For `CCC(COCCC1CCN(C(=O)c2cccnc2)CC1)n1cnc2c(N)nc3ccccc3c21` (centres unmarked) [Example 46], the values for the minimal effective concentration (in the data set on interferon (α); in data set [1]) were 0.1 µM and 1 µM, respectively.
`CCC(COCCC1CCN(C(=O)[C@@H]2C[C@H]2c2ccccc2)CC1)n1cnc2c(N)nc3ccccc3c21` (some centres unmarked) [Example 47]: the minimal effective concentration in the data set with interferon (α) came to 1 µM. In data set [1], the “Lowest Effective Concentration (μM) Tumor Necrosis Factor” value was “*”.
In the case of `CCC(COCCC1CCN(C(=O)COCc2ccccc2)CC1)n1cnc2c(N)nc3ccccc3c21` (centres unmarked) [Example 48], the minimal effective concentration with interferon (α) worked out at 0.1 µM; in data set [1] it was 10 µM.
For `CCC(COCCC1CCN(C(=O)c2ccc3ccccc3c2)CC1)n1cnc2c(N)nc3ccccc3c21` (centres unmarked) [Example 49], the minimal effective concentration in the data set on interferon (α) stood at 1 µM; in data set [1], 10 µM.
On to `CCC(COCCC1CCN(C(=O)c2cccc(C(F)(F)F)c2)CC1)n1cnc2c(N)nc3ccccc3c21` (centres unmarked) [Example 50], for which the minimal effective concentration (in the data set with interferon (α); in data set [1]) was 1 µM throughout.
As to `CCC(COCCC1CCN(C(=O)c2ccc(OC(F)(F)F)cc2)CC1)n1cnc2c(N)nc3ccccc3c21` (centres unmarked) [Example 51], the minimal effective concentration (in the data set on interferon (α); in data set [1]) was 10 µM throughout.
`CCCCC(=O)NCCOCCn1cnc2c(N)nc3ccccc3c21` [Example 52]: the minimal effective concentration (in the data set with interferon (α); in data set [1]) was 10 µM throughout.
For the compound `Nc1nc2ccccc2c2c1ncn2CCOCCNC(=O)c1ccccc1` [Example 53], the minimal effective concentration (with interferon (α); in data set [1]) was 10 µM throughout.
`Nc1nc2ccccc2c2c1ncn2CCOCCNC(=O)C1CCCCC1` [Example 54]: the minimal effective concentration (with interferon (α); in data set [1]) was 10 µM each time.
With `Nc1nc2ccccc2c2c1ncn2CCOCCNC(=O)Cc1ccccc1` [Example 55], the minimal effective concentration in the data set with interferon (α) turned out to be 1 µM; in data set [1], 10 µM.
For `Nc1nc2ccccc2c2c1ncn2CCOCCNC(=O)Cc1cccs1` [Example 56] the same measures were 1 µM and 10 µM.
As for `N#Cc1ccc(C(=O)NCCOCCn2cnc3c(N)nc4ccccc4c32)cc1` [Example 57], the minimal effective concentration in the data set with interferon (α) is 10 µM. The “Lowest Effective Concentration (μM) Tumor Necrosis Factor” value in data set [1] is given as “*”.
As for `Nc1nc2ccccc2c2c1ncn2CCOCCNC(=O)CCc1ccccc1` [Example 58], the minimal effective concentration (in the data set on interferon (α); in data set [1]) was 10 µM throughout.
In the case of `COc1cccc(C(=O)NCCOCCn2cnc3c(N)nc4ccccc4c32)c1` [Example 59], the minimal effective concentration (with interferon (α); in data set [1]) was 10 µM each time.
With `COc1ccc(C(=O)NCCOCCn2cnc3c(N)nc4ccccc4c32)cc1` [Example 60], the minimal effective concentration (with interferon (α); in data set [1]) was 10 µM throughout.
On to `Nc1nc2ccccc2c2c1ncn2CCOCCNC(=O)c1ccc(Cl)nc1` [Example 61], for which the minimal effective concentration (in the data set with interferon (α); in data set [1]) was 10 µM throughout.
For `Nc1nc2ccccc2c2c1ncn2CCOCCNC(=O)COCc1ccccc1` [Example 62], the minimal effective concentration with interferon (α) is 1 µM; in data set [1] it was 10 µM.
Consider `Nc1nc2ccccc2c2c1ncn2CCOCCNC(=O)c1ccc2ccccc2c1` [Example 63], for which, in the data set with interferon (α), the “Lowest Effective Concentration (μM) Interferon” value is given as “*”. Also, the minimal effective concentration in data set [1] turned out to be 10 µM.
`Nc1nc2ccccc2c2c1ncn2CCOCCNC(=O)c1cccc(C(F)(F)F)c1` [Example 64]: the minimal effective concentration in the data set with interferon (α) stood at 10 µM. In addition, the “Lowest Effective Concentration (μM) Tumor Necrosis Factor” value in data set [1] is “*”.
Consider `Nc1nc2ccccc2c2c1ncn2CCOCCNC(=O)c1ccc(C(F)(F)F)cc1` [Example 65], for which the “Lowest Effective Concentration (μM) Interferon” value with interferon (α) was “*”. In addition, in data set [1], the “Lowest Effective Concentration (μM) Tumor Necrosis Factor” value is “*”.
Turning to `Nc1nc2ccccc2c2c1ncn2CCOCCNC(=O)c1ccc(OC(F)(F)F)cc1` [Example 66], the “Lowest Effective Concentration (μM) Interferon” value with interferon (α) is “*”. Besides, the “Lowest Effective Concentration (μM) Tumor Necrosis Factor” value in data set [1] is recorded as “*”.
